The values below come from patent publication US20220031680A1, “Donecopride As Neuroprotective Agent In the Treatment of Neurodegenerative Diseases” (priority 2018, published 2022).

The subject of test [1] is rat primary hippocampal neurons injured with Aβ 1-42. Description: Survival and neurite network of MAP-2 neurons in primary hippocampal neurons injured with Aβ1-42. Type of test: cell-based. How it is done:
Rat hippocampal neurons were cultured as described by Callizot et al. (2013) J. Neurosci. Res. 91706-716. Pregnant female rats of 17 days gestation (Rats Wistar; Janvier Labs France) were killed using a deep anesthesia with CO2 chamber followed by a cervical dislocation. Then, fetuses were removed from the uterus and immediately placed in ice-cold L15 Leibovitz medium with a 2% penicillin (10,000 U/ml) and streptomycin (10 mg/ml) solution (PS) and 1% bovine serum albumin (BSA). Hippocampal neurons were treated for 20 min at 37° C. with a trypsin-EDTA solution at a final concentration of 0.05% trypsin and 0.02% EDTA. The dissociation was stopped by adding Dulbecco's modified Eagle's medium (DMEM) with 4.5 g/l of glucose, containing DNAse I grade II (final concentration 0.5 mg/ml) and 10% fetal calf serum (FCS). Cells were mechanically dissociated by three forced passages through the tip of a 10-ml pipette and then centrifuged at 515×g for 10 min at 4° C. The supernatant was discarded, and the pellet was resuspended in a defined culture medium consisting of Neurobasal medium with a 2% solution of B27 supplement, 2 mmol/l of L-glutamine, 2% of PS solution, and 10 ng/ml of brain-derived neurotrophic factor (BDNF). Viable cells were counted in a Neubauer cytometer, using the trypan blue exclusion test. Cells were seeded at a density of 20,000 per well in 96-well plates precoated with poly-L-lysine and cultured at 37° C. in an air (95%)-CO2 (5%) incubator. The medium was changed every 2 days.
(§1) The hippocampal neurons were exposed with Aβ solutions (see below) after 17 days of culture. The Aβ1-42 preparation was done following the procedure described by Callizot et al. (2013) J. Neurosci. Res. 91706-716. Briefly, Aβ1-42 peptide was dissolved in the defined culture medium mentioned above, at an initial concentration of 40 μM. This solution was gently agitated for 3 days at 37° C. in the dark and immediately used after being properly diluted in culture medium to the concentrations used (20 μM (plate 1) or 2.5 μM (plate 2) corresponding to 2 μM or 0.25 μM of oligomers (AβO) respectively).
(§2) Donecopride fumarate was solved in culture medium and preincubated 1 h before Aβ application. Aβ1-42 preparation was added to a final concentration of 20 or 2.5 μM (=2 μM or 0.25 μM of AβO, evaluated by automatic Western Blot) diluted in control medium in presence of Donecopride.
Donecopride fumarate (Donecopride) was tested on one culture in a 96 well plate (6 wells per conditions). The compound was preincubated one hour before Aβ application. The following conditions were assessed:
(§3) 24 hours after intoxication, the hippocampal neurons were fixed by a cold solution of ethanol (95%) and acetic acid (5%) for 5 min at −20° C. After permeabilization with 0.1% of saponin, cells were incubated for 2 h with:
a) chicken polyclonal antibody anti microtubule-associated-protein 2 (MAP-2), diluted at 1/1000 in PBS containing 1% fetal calf serum and 0.1% of saponin (this antibody allows the specific staining of neuronal cell bodies and neurites; and allow the study of neuronal cell death and neurite network).
(§4) For each condition, 30 pictures (representative of the whole well area) per well were taken using ImageXpress (Molecular Devices) at 20× magnification. All images were taken with the same acquisition parameters. Analyses were performed automatically by using Custom Module Editor (Molecular Devices).
(§5) The following endpoints were assessed: • Total number of neurons (neuron survival, number of MAP-2 positive neurons) • Neurite network (in μm of MAP-2 positive neurons) • area of tau in neurons (μm^2, overlapping with MAP-2 positive neurons).
All values are expressed as mean+/−SEM. Statistical analysis was performed by one-way ANOVA, followed by PLSD Fisher's test, p<0.05 were considered significant.
Rat hippocampal neurons were cultured as described by Callizot et al. (2013) J. Neurosci. Res. 91:706-716. […]

Test [2] shares this test system. In words: Number of synapses (PSD95/SYN overlap) in primary hippocampal neurons injured with Aβ1-42. Type of test: cell-based. As for the experimental part: as §1, §2, §3
a) mouse monoclonal antibody anti post synaptic density 95 kDa (PSD95) at a dilution of 1/100 in PBS containing 1% fetal calf serum and 0.1% of saponin.
b) Rabbit polyclonal antibody anti-synaptophysin (SYN) at the dilution of 1/100 in PBS containing 1% fetal calf serum and 0.1% of saponin.
For each condition, 40 pictures per well were taken using ImageXpress (Molecular Devices) with 40× magnification. All images were taken with the same acquisition parameters.
Synapses evaluation was performed automatically by using Custom module editor (Molecular Devices).
The following endpoints were assessed: • Total number of synapses (overlapping between PSD95/SYN).
To assess the formation of synapses, the distribution of PSD-95, a post-synaptic marker, and synaptophysin, a pre-synaptic marker, was studied. A structure positive for both PD-95 and synaptophysin staining was considered as a synapse.
(§6) Injury: The hippocampal neurons were exposed with Aβ solutions (see below) after 17 days of culture. The Aβ1-42 preparation was done following the procedure described by Callizot et al. (2013) J. Neurosci. Res. 91:706-716. The batch number of the Aβ1-42 used in this study contains 10% of oligomers (quantification by WB as performed in Combes et al. (2015) J. Neurosci. Res. 93:633-643). Briefly, Aβ1-42 peptide was dissolved in the defined culture medium mentioned above, at an initial concentration of 40 μmol/1. This solution was gently agitated for 3 days at 37° C. in the dark and immediately used after being properly diluted in culture medium to the concentrations used (20 μmol/l or 2.5 μmol/l corresponding to 2 μmol/l or 0.25 μmol/l of oligomers (AβO) respectively). Aβ1-42 preparation was added to a final concentration of 20 or 2.5 μmol/l (respectively 2 μmol/l or 0.25 μmol/l of AβO, determined by automatic WB) diluted in control medium in presence of the compounds.
Immunostaining: PSD95 and SYN—After fixation and permeabilization, cells were incubated for 2 hours with: • mouse monoclonal antibody anti post synaptic density 95 kDa (PSD95) at dilution of 1/200 in PBS containing 1% fetal calf serum and 0.1% saponin; • rabbit polyclonal antibody anti-synaptophysin (SYN) at the dilution of 1/100 in PBS containing 1% fetal calf serum and 0.1% saponin.
For each condition, 40 pictures per well were taken using ImageXpress (Molecular Devices) with 40× magnification. All images were taken with the same conditions. Synapses evaluation were performed automatically by using Custom Module Editor® (Molecular Devices). The following endpoints were assessed: • Number of synapses (overlapping between PSD95/SYN)

The subject of another test is Tau (AT100). Description: Phosphorylation of Tau (AT100) in MAP-2 hippocampal neurons injured with Aβ1-42. The class given is cell-based, rat. The settings on record: Aβ1-42 injured hippocampal neurons; for effect on Tau hyperphosphorylation: Example 4. As for the experimental part: as §1, §2, §3
b) mouse monoclonal antibody anti-phospho Tau (AT100) at dilution of 1/400 in PBS containing 1% fetal calf serum and 0.1% of saponin.
as §4, §5, §6
Immunostaining: MAP-2/AT100—After fixation and permeabilization, cells were incubated for 2 hours with: • a chicken polyclonal antibody anti microtubule-associated-protein 2 (MAP-2) at dilution of 1/1000 in PBS containing 1% fetal calf serum and 0.1% saponin (this antibody stains specifically cell bodies and neurites, allowing study of neuronal cell death and neurite network); and • a mouse monoclonal antibody anti-phospho Tau (AT100) at dilution of 1/100 in PBS containing 1% fetal calf serum and 0.1% saponin.
For each condition, 30 pictures (representative of the whole well area) per well were taken using ImageXpress® (Molecular Devices) with 20× magnification. All images were generated using the same acquisition parameters. From images, analyses were directly and automatically performed by Custom Module Editor® (Molecular Devices). The following read-outs were investigated: • Total number of neurons (neuron survival, number of MAP-2 positive neurons) • Neurite network (in μm of MAP-2 positive neurons) • Area of AT100 (μm^2, overlapping with MAP-2 positive neurons).

Where [3] appears, read: Aβ1-42 injured hippocampal neurons, Example 4.

The structures appear in SMILES notation. Some results are limits rather than exact numbers.

For the compound `COc1cc(N)c(Cl)cc1C(=O)CCC1CCN(CC2CCCCCC2)CC1` [MR31192], in test [1] (Aβ1-42 injured hippocampal neurons (FIG. 5A)), the “doses with neuroprotective effect on survival” value lay in the range of 1 to 5 nM. The “neurite length normalized by number of neurons (neuritic growth)” value in test [1] (Aβ1-42 injured hippocampal neurons (FIG. 5C)) is given as “neurotrophic effect”. Also, in test [1] (setting [3]), the “effect on neurite network” value is on record as “very large effect was also observed on neurite network at every tested dose”; the “neuroprotective effect (survival, neurite and synaptic network)” value is “very strong neuroprotective effect at very low doses”. Moreover, the “concentration up to which active (survival and neurite network)” value in test [1] (Aβ1-42 injured hippocampal neurons, Example 5 (FIG. 9A,B,C)) is no more than 500 µM. Moreover, in test [2] (Aβ1-42 injured hippocampal neurons (FIG. 6)), the “doses increasing the number of synapses” value was in the range of 1 to 5 nM. Further, the “concentration with neuroprotective effect on synapses” value in test [2] (Aβ1-42 injured hippocampal neurons, Example 5 (FIG. 10)) came to 500 pM. Further, the “effect on Tau hyperphosphorylation” value with Tau (AT100) is recorded as “important effect”. Further, the “concentration with significant reduction of Tau hyperphosphorylation” value in the test with Tau (AT100) (Example 5 (FIG. 9D)) is 100 pM.

On to `COc1cc(N)c(Cl)cc1C(=O)CCC1CCN(CC2CCNCC2)CC1` [MR31176], for which the “neuroprotective effect (survival, neurite and synaptic network)” value in test [1] (setting [3]) is listed as “neuroprotective effect at high concentrations”. In the test with Tau (AT100), the “effect on Tau hyperphosphorylation” value is “significant effect on Tau hyperphosphorylation was also observed at high concentration”.
